Experimental data: US8846949B2, “Pyrrolopyrazoles as N-type calcium channel blockers” (Janssen Pharmaceutica NV, priority 2012, dated 2014)
pIC50: −log10 of the molar value.

Target: T1, N-type calcium channel α1B (Cav2.2), β3 and α2δ subunits (Homo sapiens, UniProt Q00975)
T1 construct: expressed in transfected cells
Experiment: Functional assay, antagonism of N-type calcium channel (FDSS calcium mobilization response to KCl depolarization)
Format: cell-based
Conditions: 1 μM compound; FDSS, 50 mM KCl
Method: A stable cell line (HEK parent) co-expressing the α1B (Cav2.2), β3 and α2δ subunits of the N-type calcium channel subunits was used. These cells were routinely grown as monolayers in low glucose-containing Dulbecco's Modified Eagle Medium supplemented with 10% FBS, 2 mM L-glutamine, 100 I.U./mL penicillin, 100 μg/mL streptomycin, 400 μg/mL G418 and 200 μg/mL Zeocin (split ratio=1:5). Cells were maintained in 5% CO2 at 37° C. Compounds of Formula (I) were prepared as 10 mM stocks in DMSO from neat compound, if available. Otherwise, the 5 or 10 mM DMSO stock solutions provided in-house were used.
Calcium mobilization responses to KCl depolarization were evaluated by measuring the intensity of calcium-mediated fluorescent signal in the presence of BD Calcium Assay Dye (BD Biosciences, Franklin Lakes, N.J., U.S.A.), utilizing a Functional Drug Screening System (FDSS) by Hamamatsu Corporation (Bridgewater, N.J. U.S.A.).
Twenty-four hr prior to assay, cells were seeded in clear-base poly-D-lysine-coated 384-well plates (BD Biosciences) at a density of 5,000 cells per well in culture medium and grown overnight in 5% CO2 at 37° C. On the day of assay, growth media were removed, and cells were loaded with BD calcium assay dye (BD Biosciences) for 35 min at 37° C. under 5% CO2 and then for 25 min at room temp. Utilizing the FDSS, cells were exposed to representative compounds of Formula (I) at varying concentrations, and intracellular calcium was measured for 5 min prior to the addition of 50 mM KCl for an additional 3 min of measurement.
IC50 values for representative compounds of Formula (I) were determined from six-point concentration-response experiments and represent the concentration of said compound required to inhibit 50% of the maximal response. Maximal fluorescence intensity (FI) achieved upon addition of 50 mM KCl was exported from the FDSS software and further analyzed using GraphPad Prism 3.02 (Graph Pad Software Inc., San Diego, Calif., U.S.A.). Data were normalized to the maximum average counts from quadruplicate wells for each condition in the presence of 50 mM KCl and to the minimum average counts in the presence of buffer. Theoretical curves were generated using nonlinear regression curve-fitting analysis of either sigmoidal concentration-response or sigmoidal concentration-response (variable slope), and the IC50 values with the best-fit curve determined by GraphPad Prism were reported.

T1 sequence (Q00975 whole entry): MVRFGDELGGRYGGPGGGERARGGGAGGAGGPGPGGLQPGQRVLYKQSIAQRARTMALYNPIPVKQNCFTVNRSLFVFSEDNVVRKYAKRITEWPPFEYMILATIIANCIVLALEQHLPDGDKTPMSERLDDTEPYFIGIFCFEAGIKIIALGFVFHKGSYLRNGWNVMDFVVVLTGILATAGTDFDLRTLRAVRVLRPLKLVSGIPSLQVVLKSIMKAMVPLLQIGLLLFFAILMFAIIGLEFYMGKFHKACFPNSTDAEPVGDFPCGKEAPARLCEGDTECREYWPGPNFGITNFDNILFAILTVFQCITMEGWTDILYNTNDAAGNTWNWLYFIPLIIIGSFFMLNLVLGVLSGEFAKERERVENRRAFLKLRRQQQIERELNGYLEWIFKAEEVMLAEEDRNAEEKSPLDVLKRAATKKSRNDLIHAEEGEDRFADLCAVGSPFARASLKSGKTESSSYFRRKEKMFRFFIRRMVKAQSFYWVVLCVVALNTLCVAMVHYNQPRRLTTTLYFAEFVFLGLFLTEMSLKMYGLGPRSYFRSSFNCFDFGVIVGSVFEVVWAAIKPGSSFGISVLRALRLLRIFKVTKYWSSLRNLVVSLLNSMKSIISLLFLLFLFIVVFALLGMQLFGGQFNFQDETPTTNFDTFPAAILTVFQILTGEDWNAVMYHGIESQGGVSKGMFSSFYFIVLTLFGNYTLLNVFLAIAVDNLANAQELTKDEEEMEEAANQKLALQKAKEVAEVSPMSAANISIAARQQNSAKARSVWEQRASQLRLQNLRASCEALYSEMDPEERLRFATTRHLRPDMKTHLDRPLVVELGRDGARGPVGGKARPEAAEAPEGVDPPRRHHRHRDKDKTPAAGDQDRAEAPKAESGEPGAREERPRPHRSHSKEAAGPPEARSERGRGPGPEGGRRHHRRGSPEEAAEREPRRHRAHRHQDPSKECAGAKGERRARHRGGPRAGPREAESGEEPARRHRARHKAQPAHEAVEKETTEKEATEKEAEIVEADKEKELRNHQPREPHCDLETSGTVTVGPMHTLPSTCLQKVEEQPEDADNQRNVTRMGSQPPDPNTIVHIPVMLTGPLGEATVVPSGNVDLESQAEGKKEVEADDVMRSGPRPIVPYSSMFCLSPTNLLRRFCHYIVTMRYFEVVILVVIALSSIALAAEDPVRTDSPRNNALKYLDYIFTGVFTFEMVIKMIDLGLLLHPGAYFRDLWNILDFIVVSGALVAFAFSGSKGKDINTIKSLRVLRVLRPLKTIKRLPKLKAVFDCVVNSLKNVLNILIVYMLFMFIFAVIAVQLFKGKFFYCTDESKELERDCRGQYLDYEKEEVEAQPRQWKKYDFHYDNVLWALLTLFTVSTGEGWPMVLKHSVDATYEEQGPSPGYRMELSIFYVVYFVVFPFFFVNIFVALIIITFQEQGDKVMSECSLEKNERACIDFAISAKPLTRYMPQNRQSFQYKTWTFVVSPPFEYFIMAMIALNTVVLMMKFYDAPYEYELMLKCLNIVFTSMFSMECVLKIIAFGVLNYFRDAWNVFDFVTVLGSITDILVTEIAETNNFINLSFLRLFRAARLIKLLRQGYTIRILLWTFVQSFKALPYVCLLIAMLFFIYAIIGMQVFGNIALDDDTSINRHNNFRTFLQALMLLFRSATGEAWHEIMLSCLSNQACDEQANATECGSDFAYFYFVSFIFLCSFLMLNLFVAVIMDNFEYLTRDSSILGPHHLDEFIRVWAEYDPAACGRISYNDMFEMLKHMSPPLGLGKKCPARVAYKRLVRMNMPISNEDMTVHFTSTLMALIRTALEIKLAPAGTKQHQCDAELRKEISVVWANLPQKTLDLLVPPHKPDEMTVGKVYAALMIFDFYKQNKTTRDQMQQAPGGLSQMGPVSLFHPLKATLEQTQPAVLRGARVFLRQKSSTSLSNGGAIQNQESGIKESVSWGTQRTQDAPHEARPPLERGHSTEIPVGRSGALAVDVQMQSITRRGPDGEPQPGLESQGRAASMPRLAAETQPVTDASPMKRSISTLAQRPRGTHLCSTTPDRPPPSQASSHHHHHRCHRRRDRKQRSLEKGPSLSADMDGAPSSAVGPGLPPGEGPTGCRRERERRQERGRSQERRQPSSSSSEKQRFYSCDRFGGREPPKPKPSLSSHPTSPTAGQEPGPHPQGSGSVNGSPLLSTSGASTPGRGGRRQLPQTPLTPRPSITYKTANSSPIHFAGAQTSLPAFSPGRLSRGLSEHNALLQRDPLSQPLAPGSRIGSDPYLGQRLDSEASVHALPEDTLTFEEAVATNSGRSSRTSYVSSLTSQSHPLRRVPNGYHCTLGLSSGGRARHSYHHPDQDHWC
T1 sequence (P54284 whole entry partner): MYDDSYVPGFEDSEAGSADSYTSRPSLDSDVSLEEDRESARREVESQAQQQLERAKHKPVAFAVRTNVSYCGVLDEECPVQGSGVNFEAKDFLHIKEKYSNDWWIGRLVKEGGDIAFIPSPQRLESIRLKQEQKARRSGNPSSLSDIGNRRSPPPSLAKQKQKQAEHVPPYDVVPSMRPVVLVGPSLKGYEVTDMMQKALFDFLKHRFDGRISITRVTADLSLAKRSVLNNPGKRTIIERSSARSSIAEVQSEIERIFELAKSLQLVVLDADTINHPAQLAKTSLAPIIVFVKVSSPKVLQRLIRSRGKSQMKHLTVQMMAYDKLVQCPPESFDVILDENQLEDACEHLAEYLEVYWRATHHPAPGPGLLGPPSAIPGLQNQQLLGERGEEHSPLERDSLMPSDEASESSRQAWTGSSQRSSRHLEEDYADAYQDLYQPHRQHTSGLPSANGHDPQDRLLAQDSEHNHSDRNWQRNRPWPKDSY
T1 sequence (P54289 25-956 partner limits assumed): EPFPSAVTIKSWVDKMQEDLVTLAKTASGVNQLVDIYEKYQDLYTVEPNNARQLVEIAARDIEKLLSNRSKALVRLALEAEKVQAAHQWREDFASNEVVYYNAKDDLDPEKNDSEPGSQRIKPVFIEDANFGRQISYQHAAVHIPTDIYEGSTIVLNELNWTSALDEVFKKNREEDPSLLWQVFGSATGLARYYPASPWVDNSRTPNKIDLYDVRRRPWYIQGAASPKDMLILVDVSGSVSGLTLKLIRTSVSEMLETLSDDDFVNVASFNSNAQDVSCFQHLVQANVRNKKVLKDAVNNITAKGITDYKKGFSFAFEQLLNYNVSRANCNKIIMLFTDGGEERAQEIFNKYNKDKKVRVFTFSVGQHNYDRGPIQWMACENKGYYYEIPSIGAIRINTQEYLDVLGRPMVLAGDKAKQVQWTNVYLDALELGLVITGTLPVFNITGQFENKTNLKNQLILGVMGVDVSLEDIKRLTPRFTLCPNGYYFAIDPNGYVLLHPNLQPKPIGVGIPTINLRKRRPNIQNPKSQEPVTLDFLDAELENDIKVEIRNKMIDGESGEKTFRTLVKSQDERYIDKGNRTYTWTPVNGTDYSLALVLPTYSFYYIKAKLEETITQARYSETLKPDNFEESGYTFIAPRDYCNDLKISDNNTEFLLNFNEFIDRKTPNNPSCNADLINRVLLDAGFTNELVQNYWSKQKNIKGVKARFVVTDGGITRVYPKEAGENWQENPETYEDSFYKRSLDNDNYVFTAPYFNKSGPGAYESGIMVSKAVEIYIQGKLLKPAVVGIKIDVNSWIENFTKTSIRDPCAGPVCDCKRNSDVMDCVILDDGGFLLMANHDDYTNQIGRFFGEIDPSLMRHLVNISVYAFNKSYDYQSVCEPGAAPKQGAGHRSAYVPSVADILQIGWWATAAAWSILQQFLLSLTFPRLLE
T1 sequence (P54289 957-1103 partner limits assumed): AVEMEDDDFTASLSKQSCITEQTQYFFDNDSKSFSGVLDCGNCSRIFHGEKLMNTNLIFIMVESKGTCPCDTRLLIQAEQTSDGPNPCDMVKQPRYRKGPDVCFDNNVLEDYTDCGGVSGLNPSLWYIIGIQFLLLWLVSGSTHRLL

inhibition at 1 µM	Compound
58%	CCc1ccccc1-n1nc2c(c1-c1ccc(Cl)cc1)CN(C(=O)c1ccccn1)C2 [Cpd 7, 3-(4-Chlorophenyl)-2-(2-ethylphenyl)-5-(pyridin-2-ylcarbonyl)-2,4,5,6-tetrahydropyrrolo[3,4-c]pyrazole]
63%	CCc1ccccc1-n1nc2c(c1-c1ccc(Cl)cc1)CN(C(=O)c1cc(C)on1)C2 [Cpd 9, 3-(4-Chlorophenyl)-2-(2-ethylphenyl)-5-[(5-methylisoxazol-3-yl)carbonyl]-2,4,5,6-tetrahydropyrrolo[3,4-c]pyrazole]
59%	CCc1ccccc1-n1nc2c(c1-c1ccc(Cl)cc1)CN(C(=O)CNS(=O)(=O)C(F)(F)F)C2 [Cpd 13, N-{2-[3-(4-Chlorophenyl)-2-(2-ethylphenyl)-2,6-dihydropyrrolo[3,4-c]pyrazol-5(4H)-yl]-2-oxoethyl}-1,1,1-trifluoromethanesulfonamide]
60%	CC(C)(C)OC(=O)N1Cc2nn(-c3ccccc3C(F)(F)F)c(-c3ccc(Cl)cc3)c2C1 [Cpd 14, tert-Butyl 3-(4-chlorophenyl)-2-[2-(trifluoromethyl)phenyl]-2,6-dihydropyrrolo[3,4-c]pyrazole-5(4H)-carboxylate]
64%	COC(=O)c1ccc(N2Cc3nn(-c4ccccc4OC(F)(F)F)c(-c4ccc(Cl)cc4)c3C2)cc1 [Cpd 24, Methyl 4-[3-(4-chlorophenyl)-2-[2-(trifluoromethoxy)phenyl]-2,6-dihydropyrrolo[3,4-c]pyrazol-5(4H)-yl]benzoate]
57%	N#Cc1ccc(N2Cc3nn(-c4ccccc4OC(F)(F)F)c(-c4ccc(Cl)cc4)c3C2)cc1 [Cpd 25, 4-[3-(4-Chlorophenyl)-2-[2-(trifluoromethoxy)phenyl]-2,6-dihydropyrrolo[3,4-c]pyrazol-5(4H)-yl]benzonitrile]
57%	O=S(=O)(NCCN1CCOCC1)c1ccc(N2Cc3nn(-c4ccccc4OC(F)(F)F)c(-c4ccc(Cl)cc4)c3C2)cc1 [Cpd 26, 4-[3-(4-Chlorophenyl)-2-[2-(trifluoromethoxy)phenyl]-2,6-dihydropyrrolo[3,4-c]pyrazol-5(4H)-yl]-N-(2-morpholin-4-ylethyl)benzenesulfonamide]

Compound	inhibition at 1 µM
N#Cc1cccc(N2Cc3nn(-c4ccccc4OC(F)(F)F)c(-c4ccc(Cl)cc4)c3C2)c1 [Cpd 23, 3-[3-(4-Chlorophenyl)-2-[2-(trifluoromethoxy)phenyl]-2,6-dihydropyrrolo[3,4-c]pyrazol-5(4H)-yl]benzonitrile]	52%

Same assay, conditions: HEK stable cell line; 50 mM KCl depolarization; six-point concentration-response

pIC50	Compound
6.74	CCc1ccccc1-n1nc2c(c1-c1ccc(Cl)cc1)CN(C(=O)OC(C)(C)C)C2 [Cpd 1, tert-Butyl 3-(4-chlorophenyl)-2-(2-ethylphenyl)-2,6-dihydropyrrolo[3,4-c]pyrazole-5(4H)-carboxylate]
6.82	CCc1ccccc1-n1nc2c(c1-c1ccc(Cl)cc1)CN(S(=O)(=O)C(F)(F)F)C2 [Cpd 3, 3-(4-Chlorophenyl)-2-(2-ethylphenyl)-5-[(trifluoromethyl)sulfonyl]-2,4,5,6-tetrahydropyrrolo[3,4-c]pyrazole]
6.22	CCc1ccccc1-n1nc2c(c1-c1ccc(Cl)cc1)CN(C(=O)c1ccco1)C2 [Cpd 8, 3-(4-Chlorophenyl)-2-(2-ethylphenyl)-5-(furan-2-ylcarbonyl)-2,4,5,6-tetrahydropyrrolo[3,4-c]pyrazole]
6.55	CCc1ccccc1-n1nc2c(c1-c1ccc(Cl)cc1)CN(C(=O)COC)C2 [Cpd 10, 3-(4-Chlorophenyl)-2-(2-ethylphenyl)-5-(methoxyacetyl)-2,4,5,6-tetrahydropyrrolo[3,4-c]pyrazole]
6.28	CCc1ccccc1-n1nc2c(c1-c1ccc(Cl)cc1)CN(C(=O)CNS(C)(=O)=O)C2 [Cpd 12, N-{2-[3-(4-Chlorophenyl)-2-(2-ethylphenyl)-2,6-dihydropyrrolo[3,4-c]pyrazol-5(4H)-yl]-2-oxoethyl}methanesulfonamide]
6.55	CS(=O)(=O)N1Cc2nn(-c3ccccc3C(F)(F)F)c(-c3ccc(Cl)cc3)c2C1 [Cpd 15, 3-(4-Chlorophenyl)-5-(methylsulfonyl)-2-[2-(trifluoromethyl)phenyl]-2,4,5,6-tetrahydropyrrolo[3,4-c]pyrazole]
6.80	CC(C)S(=O)(=O)N1Cc2nn(-c3ccccc3C(F)(F)F)c(-c3ccc(Cl)cc3)c2C1 [Cpd 16, 3-(4-Chlorophenyl)-5-[(1-methylethyl)sulfonyl]-2-[2-(trifluoromethyl)phenyl]-2,4,5,6-tetrahydropyrrolo[3,4-c]pyrazole]
6.32	CC(C)(C)OC(=O)NCC(=O)N1Cc2nn(-c3ccccc3C(F)(F)F)c(-c3ccc(Cl)cc3)c2C1 [Cpd 18, tert-Butyl{2-[3-(4-chlorophenyl)-2-[2-(trifluoromethyl)phenyl]-2,6-dihydropyrrolo[3,4-c]pyrazol-5(4H)-yl]-2-oxoethyl}carbamate]

The next lines start with the compound.

Compound	pIC50
CCc1ccccc1-n1nc2c(c1-c1ccc(Cl)cc1)CN(C(=O)c1cccnc1)C2 [Cpd 4, 3-(4-Chlorophenyl)-2-(2-ethylphenyl)-5-(pyridin-3-ylcarbonyl)-2,4,5,6-tetrahydropyrrolo[3,4-c]pyrazole]	6.70
Cc1ccc(S(=O)(=O)N2Cc3nn(-c4ccccc4C(F)(F)F)c(-c4ccc(Cl)cc4)c3C2)cc1 [Cpd 17, 3-(4-Chlorophenyl)-5-[(4-methylphenyl)sulfonyl]-2-[2-(trifluoromethyl)phenyl]-2,4,5,6-tetrahydropyrrolo[3,4-c]pyrazole]	6.52
CC(C)(C)OC(=O)N1Cc2nn(-c3ccccc3OC(F)(F)F)c(-c3ccc(Cl)cc3)c2C1 [Cpd 19, tert-Butyl 3-(4-chlorophenyl)-2-[2-(trifluoromethoxy)phenyl]-2,6-dihydropyrrolo[3,4-c]pyrazole-5(4H)-carboxylate]	6.52
O=C(N1Cc2nn(-c3ccccc3OC(F)(F)F)c(-c3ccc(Cl)cc3)c2C1)C(F)(F)F [Cpd 21, 3-(4-Chlorophenyl)-5-(trifluoroacetyl)-2-[2-(trifluoromethoxy)phenyl]-2,4,5,6-tetrahydropyrrolo[3,4-c]pyrazole]	6.52
COc1ccccc1-n1nc2c(c1-c1ccc(Cl)cc1)CN(C(=O)CNC(=O)OC(C)(C)C)C2 [Cpd 29, tert-Butyl{2-[3-(4-chlorophenyl)-2-(2-methoxyphenyl)-2,6-dihydropyrrolo[3,4-c]pyrazol-5(4H)-yl]-2-oxoethyl}carbamate]	6.74
COc1ccccc1-n1nc2c(c1-c1ccc(Cl)cc1)CN(C(=O)N(C)C)C2 [Cpd 34, 3-(4-Chlorophenyl)-2-(2-methoxyphenyl)-N,N-dimethyl-2,6-dihydropyrrolo[3,4-c]pyrazole-5(4H)-carboxamide]	6.77
COc1ccccc1-n1nc2c(c1-c1ccc(Cl)cc1)CN(S(=O)(=O)CCN1C(=O)c3ccccc3C1=O)C2 [Cpd 38, 2-(2-{[3-(4-Chlorophenyl)-2-(2-methoxyphenyl)-2,6-dihydropyrrolo[3,4-c]pyrazol-5(4H)-yl]sulfonyl}ethyl)-1H-isoindole-1,3(2H)-dione]	7.28
COc1ccccc1-n1nc2c(c1-c1ccc(Cl)cc1)CN(S(=O)(=O)Cc1ccccc1)C2 [Cpd 39, 5-(Benzylsulfonyl)-3-(4-chlorophenyl)-2-(2-methoxyphenyl)-2,4,5,6-tetrahydropyrrolo[3,4-c]pyrazole]	7.57
